# Molecular target: T1, human full-length MKNK1 (Homo sapiens, UniProt Q9BUB5, T385D)
# T1 construct: GST (N); purchased Carna Biosciences 02-145; host or cells: insect cells (baculovirus expression system)
# Experiment: MKNK1 kinase high ATP assay (TR-FRET)
# Assay type: biochemical
# Details: Table 1; MKNK1 kinase high ATP assay, 2 mM ATP; read-out: MKNK1 IC50
# How it was run: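 Full-length human MKNK1 (T385D) preincubated 15 min at 22 °C with compound in HEPES pH 7.5/MgCl2/DTT buffer; reaction with 2 mM ATP (final) and 0.06 μM biotinylated peptide (final), 30 min at 22 °C.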
# T1 sequence (Q9BUB5 1-424 isoform Q9BUB5-2 T344D): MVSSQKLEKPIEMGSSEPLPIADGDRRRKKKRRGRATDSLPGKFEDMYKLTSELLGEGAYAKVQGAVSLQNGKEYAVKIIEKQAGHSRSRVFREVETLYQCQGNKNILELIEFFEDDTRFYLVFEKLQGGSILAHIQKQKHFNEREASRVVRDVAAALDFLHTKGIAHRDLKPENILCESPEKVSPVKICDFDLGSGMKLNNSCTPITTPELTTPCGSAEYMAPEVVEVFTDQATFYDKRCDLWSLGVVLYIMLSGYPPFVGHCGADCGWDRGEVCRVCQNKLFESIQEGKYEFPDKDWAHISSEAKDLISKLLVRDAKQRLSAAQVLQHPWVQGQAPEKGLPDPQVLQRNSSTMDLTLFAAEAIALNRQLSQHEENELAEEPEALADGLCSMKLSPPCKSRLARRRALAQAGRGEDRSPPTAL
row,IC50 [nM],SMILES
1,0.2,"CC(C)Oc1cc2[nH]ncc2cc1Nc1ncnc2sc3c(c12)CC[C@H](C(=O)N1CC(N(C)C)C1)C3 [Example 219, [3-(Dimethylamino)azetidin-1-yl][(7S)-4-{[6-(propan-2-yloxy)-1H-indazol-5-yl]amino}-5,6,7,8-tetrahydro[1]benzothieno[2,3-d]pyrimidin-7-yl]methanone]"
2,4.3,"O=C([C@H]1CCc2c(sc3ncnc(Nc4cc5cn[nH]c5cc4F)c23)C1)N1CC2CC2C1 (stereo partly drawn) [Example 220, 3-Azabicyclo[3.1.0]hex-3-yl{(7S)-4-[(6-fluoro-1H-indazol-5-yl)amino]-5,6,7,8-tetrahydro[1]benzothieno[2,3-d]pyrimidin-7-yl}methanone]"
3,3.8,"C[C@@H]1CN(C(=O)[C@H]2CCc3c(sc4ncnc(Nc5cc6cn[nH]c6cc5F)c34)C2)C[C@H](C)O1 [Example 221, [(2R,6S)-2,6-Dimethylmorpholin-4-yl]{(7S)-4-[(6-fluoro-1H-indazol-5-yl)amino]-5,6,7,8-tetrahydro[1]benzothieno[2,3-d]pyrimidin-7-yl}methanone]"
4,3.7,"C[C@@H]1CN(C(=O)[C@H]2CCc3c(sc4ncnc(Nc5cc6cn[nH]c6cc5F)c34)C2)C[C@@H](C)O1 [Example 224, [(2R,6R)-2,6-Dimethylmorpholin-4-yl]{(7S)-4-[(6-fluoro-1H-indazol-5-yl)amino]-5,6,7,8-tetrahydro[1]benzothieno[2,3-d]pyrimidin-7-yl}methanone]"
5,8.7,"C[C@H]1CN(C(=O)[C@H]2CCc3c(sc4ncnc(Nc5cc6cn[nH]c6cc5F)c34)C2)C[C@H](C)O1 [Example 225, [(2S,6S)-2,6-Dimethylmorpholin-4-yl]{(7S)-4-[(6-fluoro-1H-indazol-5-yl)amino]-5,6,7,8-tetrahydro[1]benzothieno[2,3-d]pyrimidin-7-yl}methanone]"
6,4.3,"C[C@H]1CN(C(=O)[C@H]2CCc3c(sc4ncnc(Nc5cc6cn[nH]c6cc5Cl)c34)C2)C[C@H](C)O1 [Example 229, {(7S)-4-[(6-Chloro-1H-indazol-5-yl)amino]-5,6,7,8-tetrahydro[1]benzothieno[2,3-d]pyrimidin-7-yl}[(2S,6S)-2,6-dimethylmorpholin-4-yl]methanone]"
7,5.8,"C[C@@H]1COCCN1C(=O)[C@H]1CCc2c(sc3ncnc(Nc4cc5cn[nH]c5cc4Br)c23)C1 [Example 232, {(7S)-4-[(6-Bromo-1H-indazol-5-yl)amino]-5,6,7,8-tetrahydro[1]benzothieno[2,3-d]pyrimidin-7-yl}[(3R)-3-methylmorpholin-4-yl]methanone]"
8,2.1,"C[C@@H]1CN(C(=O)[C@H]2CCc3c(sc4ncnc(Nc5cc6cn[nH]c6cc5Br)c34)C2)C[C@@H](C)O1 [Example 233, {(7S)-4-[(6-Bromo-1H-indazol-5-yl)amino]-5,6,7,8-tetrahydro[1]benzothieno[2,3-d]pyrimidin-7-yl}[(2R,6R)-2,6-dimethylmorpholin-4-yl]methanone]"
9,3.4,"C[C@@H]1CN(C(=O)[C@H]2CCc3c(sc4ncnc(Nc5cc6cn[nH]c6cc5Br)c34)C2)C[C@H](C)O1 [Example 234, {(7S)-4-[(6-Bromo-1H-indazol-5-yl)amino]-5,6,7,8-tetrahydro[1]benzothieno[2,3-d]pyrimidin-7-yl}[(2R,6S)-2,6-dimethylmorpholin-4-yl]methanone]"
10,3.4,"C[C@H]1COCCN1C(=O)[C@H]1CCc2c(sc3ncnc(Nc4cc5cn[nH]c5cc4Br)c23)C1 [Example 235, {(7S)-4-[(6-Bromo-1H-indazol-5-yl)amino]-5,6,7,8-tetrahydro[1]benzothieno[2,3-d]pyrimidin-7-yl}[(3S)-3-methylmorpholin-4-yl]methanone]"
11,14.6,"C[C@H]1CN(C(=O)[C@H]2CCc3c(sc4ncnc(Nc5cc6cn[nH]c6cc5Br)c34)C2)C[C@H](C)O1 [Example 236, {(7S)-4-[(6-Bromo-1H-indazol-5-yl)amino]-5,6,7,8-tetrahydro[1]benzothieno[2,3-d]pyrimidin-7-yl}[(2S,6S)-2,6-dimethylmorpholin-4-yl]methanone]"
12,2.8,"O=C([C@H]1CCc2c(sc3ncnc(Nc4cc5cn[nH]c5cc4Br)c23)C1)N1CCOCC1 [Example 237, {(7S)-4-[(6-Bromo-1H-indazol-5-yl)amino]-5,6,7,8-tetrahydro[1]benzothieno[2,3-d]pyrimidin-7-yl}(morpholin-4-yl)methanone]"
13,0.3,"C[C@H]1CN(C(=O)[C@H]2CCc3c(sc4ncnc(Nc5cc6cn[nH]c6cc5N(C)C)c34)C2)C[C@H](C)O1 [Example 239, [(7S)-4-{[6-(Dimethylamino)-1H-indazol-5-yl]amino}-5,6,7,8-tetrahydro[1]benzothieno[2,3-d]pyrimidin-7-yl][(2S,6S)-2,6-dimethylmorpholin-4-yl]methanone]"
14,0.2,"C[C@@H]1CN(C(=O)[C@H]2CCc3c(sc4ncnc(Nc5cc6cn[nH]c6cc5N(C)C)c34)C2)C[C@@H](C)O1 [Example 240, [(7S)-4-{[6-(Dimethylamino)-1H-indazol-5-yl]amino}-5,6,7,8-tetrahydro[1]benzothieno[2,3-d]pyrimidin-7-yl][(2R,6R)-2,6-dimethylmorpholin-4-yl]methanone]"

# The remaining lines, values behind:
row,SMILES,IC50 [nM]
1,"COCCN(C)C(=O)[C@H]1CCc2c(sc3ncnc(Nc4cc5cn[nH]c5cc4F)c23)C1 [Example 222, (7S)-4-[(6-Fluoro-1H-indazol-5-yl)amino]-N-(2-methoxyethyl)-N-methyl-5,6,7,8-tetrahydro[1]benzothieno[2,3-d]pyrimidine-7-carboxamide]",3.2
2,"C[C@@H]1COCCN1C(=O)[C@H]1CCc2c(sc3ncnc(Nc4cc5cn[nH]c5cc4F)c23)C1 [Example 223, {(7S)-4-[(6-Fluoro-1H-indazol-5-yl)amino]-5,6,7,8-tetrahydro[1]benzothieno[2,3-d]pyrimidin-7-yl}[(3R)-3-methylmorpholin-4-yl]methanone]",8.4
3,"O=C([C@H]1CCc2c(sc3ncnc(Nc4cc5cn[nH]c5cc4F)c23)C1)N1CCOCC1 [Example 226, {(7S)-4-[(6-Fluoro-1H-indazol-5-yl)amino]-5,6,7,8-tetrahydro[1]benzothieno[2,3-d]pyrimidin-7-yl}(morpholin-4-yl)methanone]",7.8
4,"C[C@H]1COCCN1C(=O)[C@H]1CCc2c(sc3ncnc(Nc4cc5cn[nH]c5cc4F)c23)C1 [Example 227, {(7S)-4-[(6-Fluoro-1H-indazol-5-yl)amino]-5,6,7,8-tetrahydro[1]benzothieno[2,3-d]pyrimidin-7-yl}[(3S)-3-methylmorpholin-4-yl]methanone]",7
5,"CN(C)C(=O)[C@H]1CCc2c(sc3ncnc(Nc4cc5cn[nH]c5cc4F)c23)C1 [Example 228, (7S)-4-[(6-Fluoro-1H-indazol-5-yl)amino]-N,N-dimethyl-5,6,7,8-tetrahydro[1]benzothieno[2,3-d]pyrimidine-7-carboxamide]",6.1
6,"COCCN(C)C(=O)[C@H]1CCc2c(sc3ncnc(Nc4cc5cn[nH]c5cc4Cl)c23)C1 [Example 230, (7S)-4-[(6-Chloro-1H-indazol-5-yl)amino]-N-(2-methoxyethyl)-N-methyl-5,6,7,8-tetrahydro[1]benzothieno[2,3-d]pyrimidine-7-carboxamide]",2.5
7,"O=C([C@H]1CCc2c(sc3ncnc(Nc4cc5cn[nH]c5cc4Cl)c23)C1)N1CCOCC1 [Example 231, {(7S)-4-[(6-Chloro-1H-indazol-5-yl)amino]-5,6,7,8-tetrahydro[1]benzothieno[2,3-d]pyrimidin-7-yl}(morpholin-4-yl)methanone]",4
8,"COCCN(C)C(=O)[C@H]1CCc2c(sc3ncnc(Nc4cc5cn[nH]c5cc4Br)c23)C1 [Example 238, (7S)-4-[(6-Bromo-1H-indazol-5-yl)amino]-N-(2-methoxyethyl)-N-methyl-5,6,7,8-tetrahydro[1]benzothieno[2,3-d]pyrimidine-7-carboxamide]",3.8
9,"CN(CCC(F)(F)F)C(=O)[C@H]1CCc2c(sc3ncnc(Nc4cc5cn[nH]c5cc4N(C)C)c23)C1 [Example 241, (7S)-4-{[6-(Dimethylamino)-1H-indazol-5-yl]amino}-N-methyl-N-(3,3,3-trifluoropropyl)-5,6,7,8-tetrahydro[1]benzothieno[2,3-d]pyrimidine-7-carboxamide]",0.2
10,"CN(C)C(=O)[C@H]1CCc2c(sc3ncnc(Nc4cc5cn[nH]c5cc4N(C)CCC(C)(C)O)c23)C1 [Example 242, (7S)-4-({6-[(3-Hydroxy-3-methylbutyl)(methyl)amino]-1H-indazol-5-yl}amino)-N,N-dimethyl-5,6,7,8-tetrahydro[1]benzothieno[2,3-d]pyrimidine-7-carboxamide]",20.3
11,"CN(C)C(=O)[C@H]1CCc2c(sc3ncnc(Nc4cc5cn[nH]c5cc4N(C)CCNC(=O)OC(C)(C)C)c23)C1 [Example 243, tert-butyl {2-[(5-{[(7S)-7-(Dimethylcarbamoyl)-5,6,7,8-tetrahydro[1]benzothieno[2,3-d]pyrimidin-4-yl]amino}-1H-indazol-6-yl)(methyl)amino]ethyl}carbamate]",1.6
12,"CN(C)C(=O)[C@H]1CCc2c(sc3ncnc(Nc4cc5cn[nH]c5cc4NCCNC(=O)OC(C)(C)C)c23)C1 [Example 244, tert-Butyl {2-[(5-{[(7S)-7-(dimethylcarbamoyl)-5,6,7,8-tetrahydro[1]benzothieno[2,3-d]pyrimidin-4-yl]amino}-1H-indazol-6-yl)amino]ethyl}carbamate]",48.3
13,"CN(CCC(F)(F)F)C(=O)[C@H]1CCc2c(sc3ncnc(Nc4cc5cn[nH]c5cc4N4CCCC4)c23)C1 [Example 245, (7S)—N-Methyl-4-{[6-(pyrrolidin-1-yl)-1H-indazol-5-yl]amino}-N-(3,3,3-trifluoropropyl)-5,6,7,8-tetrahydro[1]benzothieno[2,3-d]pyrimidine-7-carboxamide]",0.6
